This note sets out measurements from patent publication US5164296A, “Assay methods involving ouabain” (priority 1990, dated 1992).

Data set [1] deals with rings of aorta from guinea pigs. Description: Vasoactive properties in rings of aorta from guinea pigs. The arrangement: species or system guinea pig. As to the method:
The aortic rings were incubated at 37° C. in phosphate buffered saline. The rings were submaximally contracted for 3 to 7 min, every 35 min, with 0.2 or 1.0 μM histamine. […] The apparent half-time for washout of the augmented tension response in the presence of plant ouabain was also much greater than 60 min.

A short description of data set [2]: Protein binding in plasma. Conditions: EDLF described in the present invention. The class given is in vitro ADME.
Data set [3] has as its target T1, washed human red blood cells (Homo sapiens, UniProt P05023).
T1 construct: washed human red blood cells obtained by venipuncture; endogenous in cells; host or cells: washed human red blood cells (venipuncture)
Nature of the data set: Inhibition of ouabain-sensitive ^86 Rb uptake by washed human red blood cells. The data set is classed as cell-based. As to the method:
Fractions from the column were assayed for inhibition of ouabain-sensitive ^86 Rb uptake by washed human red blood cells obtained by venipuncture. This assay was used as an index of sodium transport activity (Hamlyn, J.M. et al, J. Biol. Chem., 264:7395-7404 (1989)).
More specifically, freshly washed cells were incubated for 2 hr at 37° C. (16% final hematocrit) in a final volume of 150 μl of flux buffer comprising 150 mM NaCl, 2.0 mM […] containing tracer amounts of ^86 Rb (DuPont--New England Nuclesr), 1.0 mM MgCl2, 1.0 mM Na2 HPO4, 2.0 mM CaCl2, 5.0 mM glucose and 20 mM HEPES-Tris (pH 7.4) (hereinafter "flux fubber"). Incubations were initiated by addition of column fractions to the cells. Aliquots were removed at various times and mixed with ice-cold flux buffer lacking ^86 Rb to quench the reactions. The quenched reactions were applied to a silicone oil cushion (Hysol XF1792B, Dexter Corp., Olean, N.Y.) in microcentrifuge tubes and centrifuged at 800×g for 10 min at 4° C. The red cell pellet was cut from deep-frozen tubes and trapped ^86 Rb was determined by γ-counting. Flux data were expressed as nmol of Rb uptake/10^8 cells. In each case, a value of 1.11×10^13 cells/liter was used to convert packed cell volumes to cell number for the flux data calculations. Ouabain-insensitive ^86 Rb uptake was estimated in parallel experiments by inclusion of 1.0 mM ouabain in the flux buffer. Ouabain-sensitive ^86 Rb uptake was taken as the total uptake minus that obtained in the presence of 1.0 mM ouabain.
The inhibition of ouabain-sensitive uptake of ^86 Rb was carried out as described above.

[4] abbreviates: 50 ml of plasma equivalents from the UV peak at 32 min.

By Hill coefficient is commonly meant the slope factor of the fitted curve. As for `CC1OC(OC2CC(O)C3(CO)C4C(O)CC5(C)C(C6=CC(=O)OC6)CCC5(O)C4CCC3(O)C2)C(O)C(O)C1O` (stereo not shown) [human ouabain], the “effect on baseline tension” value in data set [1] (170 nM human ouabain, 200 nM plant ouabain) is reported as “no effect”. Also, the activity at 0.17 µM in data set [1] (Cavia porcellus, 0.5 h, read-out: histamine-evoked tension, % of control) was determined as 150 ± 14%. Further, in data set [1] (upon washout), the “apparent half-time for washout of the augmented tension response” value is recorded as “greater than 60 min”. The “protein binding in plasma” value in data set [2] is on record as “not highly protein bound in plasma”. In data set [3] (setting [4]), the “effect on ouabain-insensitive uptake” value is given as “no effect” and the “inhibition of ouabain-sensitive ^86 Rb uptake” value was 80%. In data set [3] (inhibition of ouabain-sensitive uptake of ^86 Rb), the Hill coefficient is on record as -0.99.
